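Grown in 96-well plates, cells were treated for 48 hours with each compound at five concentrations. Insufficient inhibition: endpoint recorded as highest concentration tested. TGI is the concentration that stops growth completely.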
How the values were obtained:
Test in all cases: NCI tumour cell line growth inhibition, 48 h
786-0 renal = tested on: 786-0 renal
A498 renal = tested on: A498 renal
A549 NSCLC = tested on: A549 NSCLC
ACHN renal = tested on: ACHN renal
CAKI-1 renal = tested on: CAKI-1 renal
CCRF-CEM leukemia = tested on: CCRF-CEM leukemia
COLO 205 colon = tested on: COLO 205 colon
DU-145 prostate = tested on: DU-145 prostate
EKVX NSCLC = tested on: EKVX NSCLC
HCC-2998 colon = tested on: HCC-2998 colon
HCT-116 colon = tested on: HCT-116 colon
HCT-15 colon = tested on: HCT-15 colon
HL-60(TB) leukemia = tested on: HL-60(TB) leukemia
HOP-92 NSCLC = tested on: HOP-92 NSCLC
HS 578T breast = tested on: HS 578T breast
HT29 colon = tested on: HT29 colon
IGROV1 ovarian = tested on: IGROV1 ovarian
K-562 leukemia = tested on: K-562 leukemia
KM12 colon = tested on: KM12 colon
LOX IMVI melanoma = tested on: LOX IMVI melanoma
M14 melanoma = tested on: M14 melanoma
MALME-3M melanoma = tested on: MALME-3M melanoma
MCF7 breast = tested on: MCF7 breast
MDA-MB-231 breast = tested on: MDA-MB-231 breast
MDA-MB-435 = tested on: MDA-MB-435
MDA-N = tested on: MDA-N
MOLT-4 leukemia = tested on: MOLT-4 leukemia
NCI-H226 lung = tested on: NCI-H226 lung
NCI-H23 lung = tested on: NCI-H23 lung
NCI-H460 lung = tested on: NCI-H460 lung
NCI-H522 lung = tested on: NCI-H522 lung
NCI/ADR-RES ovarian = tested on: NCI/ADR-RES ovarian
OVCAR-4 ovarian = tested on: OVCAR-4 ovarian
OVCAR-5 ovarian = tested on: OVCAR-5 ovarian
OVCAR-8 ovarian = tested on: OVCAR-8 ovarian
PC-3 prostate = tested on: PC-3 prostate
SF-268 CNS = tested on: SF-268 CNS
SF-295 CNS = tested on: SF-295 CNS
SF-539 CNS = tested on: SF-539 CNS
SK-MEL-2 melanoma = tested on: SK-MEL-2 melanoma
SK-MEL-28 melanoma = tested on: SK-MEL-28 melanoma
SK-MEL-5 melanoma = tested on: SK-MEL-5 melanoma
SK-OV-3 ovarian = tested on: SK-OV-3 ovarian
SN12C renal = tested on: SN12C renal
SNB-19 CNS = tested on: SNB-19 CNS
SNB-75 CNS = tested on: SNB-75 CNS
SR leukemia = tested on: SR leukemia
SW-620 colon = tested on: SW-620 colon
T-47D breast = tested on: T-47D breast
TK-10 renal = tested on: TK-10 renal
U251 CNS = tested on: U251 CNS
UACC-257 melanoma = tested on: UACC-257 melanoma
UACC-62 melanoma = tested on: UACC-62 melanoma
UO-31 renal = tested on: UO-31 renal

What does the source list for O=C(CCc1ccc(O)c(O)c1)c1ccc(O)c(O)c1O?
TGI (786-0 renal): > 100 µM; TGI (A498 renal): > 100 µM; TGI (A549 NSCLC): > 100 µM; TGI (ACHN renal): 28.4 µM; TGI (CAKI-1 renal): 37.9 µM; TGI (CCRF-CEM leukemia): 47.3 µM; TGI (COLO 205 colon): 34.3 µM; TGI (DU-145 prostate): 37.2 µM; TGI (EKVX NSCLC): 48.4 µM; TGI (HCC-2998 colon): > 100 µM; TGI (HCT-116 colon): > 100 µM; TGI (HCT-15 colon): 33 µM; TGI (HL-60(TB) leukemia): 32.6 µM; TGI (HOP-92 NSCLC): 68.4 µM; TGI (HS 578T breast): > 100 µM; TGI (HT29 colon): 84 µM; TGI (IGROV1 ovarian): > 100 µM; TGI (K-562 leukemia): 66 µM; TGI (KM12 colon): 36.2 µM; TGI (LOX IMVI melanoma): > 100 µM; TGI (M14 melanoma): 41.7 µM; TGI (MALME-3M melanoma): > 100 µM; TGI (MCF7 breast): 42 µM; TGI (MDA-MB-231 breast): 55.5 µM; TGI (MDA-MB-435): 62.2 µM; TGI (MDA-N): 32.2 µM; TGI (MOLT-4 leukemia): 89.5 µM; TGI (NCI-H226 lung): 36.2 µM; TGI (NCI-H23 lung): 61.3 µM; TGI (NCI-H460 lung): 36.2 µM; TGI (NCI-H522 lung): 41.1 µM; TGI (NCI/ADR-RES ovarian): > 100 µM; TGI (OVCAR-4 ovarian): 78.5 µM; TGI (OVCAR-5 ovarian): 49.4 µM; TGI (OVCAR-8 ovarian): 74.2 µM; TGI (PC-3 prostate): > 100 µM; TGI (SF-268 CNS): 60.6 µM; TGI (SF-295 CNS): 36.7 µM; TGI (SF-539 CNS): 37.7 µM; TGI (SK-MEL-2 melanoma): > 100 µM; TGI (SK-MEL-28 melanoma): > 100 µM; TGI (SK-MEL-5 melanoma): 36.3 µM; TGI (SK-OV-3 ovarian): > 100 µM; TGI (SN12C renal): 31.9 µM; TGI (SNB-19 CNS): > 100 µM; TGI (SNB-75 CNS): > 100 µM; TGI (SR leukemia): > 100 µM; TGI (SW-620 colon): > 100 µM; TGI (T-47D breast): 66.3 µM; TGI (TK-10 renal): 47.3 µM; TGI (U251 CNS): 62.4 µM; TGI (UACC-257 melanoma): > 100 µM; TGI (UACC-62 melanoma): > 100 µM; TGI (UO-31 renal): > 100 µM

— PubChem BioAssay (NCI)
